Test results taken from patent US20060069132A1, “Azolecarboxamide herbicides” (priority 2004, published 2006).

Experiments:
barnyardgrass [1] = experiment: Test B flooded paddy test; type: in vivo, Echinochloa crus-galli; settings: 1000 g ai/ha, visual rating, scale 0 to 100 (0 no effect, 100 complete control), 13 to 15 days
Procedure, shortened: (§1)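 Visual ratings, 0 (no effect) to 100 (complete control), made versus controls after 13–15 d greenhouse. Paddy plants treated at 2-leaf stage; postemergence plants at 1- to 4-leaf stage, 2–18 cm tall.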

ducksalad [2] = experiment: Test B flooded paddy test; type: in vivo, Heteranthera limosa; settings: 1000 g ai/ha, visual rating, scale 0 to 100 (0 no effect, 100 complete control), 13 to 15 days
Procedure, shortened: as §1

[3] = system: small flower umbrella sedge; experiment: Test B flooded paddy test; type: in vivo, Cyperus difformis; settings: 1000 g ai/ha, visual rating, scale 0 to 100 (0 no effect, 100 complete control), 13 to 15 days
Procedure, shortened: as §1

Surinam grass = experiment: Test B pre-/postemergence herbicide test; type: in vivo, Urochloa decumbens; settings: for Plant response rating, Surinam Grass: preemergence; for Surinam Grass plant response rating: postemergence, visual rating, scale 0 (no effect) to 100 (complete control)
Procedure, shortened: (§2)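 Plants compared with untreated controls 13–15 days post-treatment and given a visual 0–100 injury score. Applications: preemergence to seeds; postemergence at 1- to 4-leaf (2–18 cm); paddy species flooded, 2-leaf stage. Vehicle non-phytotoxic, surfactant included.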

velvetleaf = experiment: Test B pre-/postemergence herbicide test; type: in vivo, Abutilon theophrasti; settings: for Plant response rating, Velvetleaf: preemergence; for Velvetleaf plant response rating: postemergence, visual rating, scale 0 (no effect) to 100 (complete control)
Procedure, shortened: as §2

barnyardgrass [4] = experiment: Test B pre-/postemergence herbicide test; type: in vivo, Echinochloa crus-galli; settings: for Plant response rating, Barnyardgrass: preemergence; for Barnyardgrass plant response rating: postemergence, visual rating, scale 0 (no effect) to 100 (complete control)
Procedure, shortened: (§3)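 Visual rating, 0 (no effect) to 100 (complete control), versus untreated controls after 13–15 d in greenhouse. Pre- and postemergence applications (postemergence plants 2–18 cm, 1–4 leaves); flooded paddy arm at 2-leaf stage. Compounds in non-phytotoxic solvent plus surfactant.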

corn = experiment: Test B pre-/postemergence herbicide test; type: in vivo, Zea mays; settings: for Plant response rating, Corn: preemergence; for Corn plant response rating: postemergence, visual rating, scale 0 (no effect) to 100 (complete control)
Procedure, shortened: as §2

blackgrass = experiment: Test B postemergence herbicide test; type: in vivo, Alopecurus myosuroides; settings: postemergence, visual rating, scale 0 (no effect) to 100 (complete control)
Procedure, shortened: as §1

[5] = system: smallflower umbrella sedge; experiment: Test C flooded paddy test; type: in vivo, Cyperus difformis
cocklebur = experiment: Test B pre-/postemergence herbicide test; type: in vivo, Xanthium strumarium; settings: for Plant response rating, Cocklebur: preemergence; for Cocklebur plant response rating: postemergence, visual rating, scale 0 (no effect) to 100 (complete control)
Procedure, shortened: as §3

rice [6] = experiment: Test C flooded paddy test; type: in vivo, Oryza sativa
Procedure, shortened: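 Postemergence sprays applied to plants 2 to 18 cm tall (1- to 4-leaf stage); paddy species grown to 2-leaf stage under flooding. After 12 to 14 days in greenhouse, visual rating versus untreated controls on 0–100 scale (0 no effect, 100 complete control).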

barnyardgrass [7] = experiment: Test C flooded paddy test; type: in vivo, Echinochloa crus-galli
Procedure, shortened: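 Greenhouse test with a 12–14 day hold after application and visual comparison with controls. Emerged plants were 1- to 4-leaf stage (2–18 cm) when sprayed postemergence, and the paddy barnyardgrass was at 2 leaves under flooded conditions. 100 = complete control.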

rice [8] = experiment: Test B pre-/postemergence herbicide test; type: in vivo, Oryza sativa; settings: preemergence
Procedure, shortened: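 Greenhouse pot assay with simultaneous preemergence (treated seed) and postemergence (2–18 cm seedlings) applications of surfactant-containing, non-phytotoxic solvent formulations. Response scored visually 13–15 days later on a 0–100 scale, 100 meaning complete control.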

large crabgrass = experiment: Test B pre-/postemergence herbicide test; type: in vivo, Digitaria sanguinalis; settings: for Plant response rating, Crabgrass, Large: preemergence; for Crabgrass, Large plant response rating: postemergence, visual rating, scale 0 (no effect) to 100 (complete control)
Procedure, shortened: as §2

morningglory = experiment: Test B pre-/postemergence herbicide test; type: in vivo, Ipomoea coccinea; settings: for Plant response rating, Morningglory: preemergence; for Morningglory plant response rating: postemergence, visual rating, scale 0 (no effect) to 100 (complete control)
Procedure, shortened: as §3

ducksalad [9] = experiment: Test C flooded paddy test; type: in vivo, Heteranthera limosa
rice [10] = experiment: Test B flooded paddy test; type: in vivo, Oryza sativa; settings: 1000 g ai/ha, visual rating, scale 0 to 100 (0 no effect, 100 complete control), 13 to 15 days
Procedure, shortened: (§4)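 Formulated test chemicals went onto postemergence plants measuring 2 to 18 cm, at one to four leaves. For the paddy assay, species had reached two leaves. Scoring took place 13–15 days later by eye, relative to untreated plants, using 0 for no effect up to 100 for full control.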

pigweed = experiment: Test B pre-/postemergence herbicide test; type: in vivo, Amaranthus retroflexus; settings: for Plant response rating, Pigweed: preemergence; for Pigweed plant response rating: postemergence, visual rating, scale 0 (no effect) to 100 (complete control)
Procedure, shortened: as §2

wild oat = experiment: Test B postemergence herbicide test; type: in vivo, Avena fatua; settings: postemergence, visual rating, scale 0 (no effect) to 100 (complete control)
Procedure, shortened: as §4

lambsquarters = experiment: Test B pre-/postemergence herbicide test; type: in vivo, Chenopodium album; settings: for Plant response rating, Lambsquarters: preemergence; for Lambsquarters plant response rating: postemergence, visual rating, scale 0 (no effect) to 100 (complete control)
Procedure, shortened: as §2

giant foxtail = experiment: Test B pre-/postemergence herbicide test; type: in vivo, Setaria faberi; settings: for Plant response rating, Foxtail, Giant: preemergence; for Foxtail, Giant plant response rating: postemergence, visual rating, scale 0 (no effect) to 100 (complete control)
Procedure, shortened: as §2

wheat = experiment: Test B postemergence herbicide test; type: in vivo, Triticum aestivum; parameters: key to Wheat plant response rating: 0 = no effect, 100 = complete control; settings: postemergence, 500 g ai/ha; visual rating, scale 0 (no effect) to 100 (complete control)
Procedure, shortened: as §4

[11] = 500 g ai/ha, visual rating 0-100, 0 no effect, 100 complete control
[12] = 125 g ai/ha, 0 to 100 scale, 0 is no effect, 100 is complete control
[13] = 62 g ai/ha, scale 0 to 100 (0 no effect, 100 complete control)
[14] = 125 g ai/ha, scale 0 to 100 (0 no effect, 100 complete control)
[15] = 250 g ai/ha, scale of 0 to 100, 0 is no effect, 100 is complete control
[16] = 500 g ai/ha, visual rating after 12 to 14 days, scale 0 to 100 (0 no effect, 100 complete control)

CCn1nc(C(C)(C)C)cc1C(=O)Nc1cccc(C(=O)N(C)CC#N)n1 [Compound 158]
Barnyardgrass plant response rating (barnyardgrass [1]): 70
Ducksalad plant response rating (ducksalad [2]): 90
Sedge, Umbrella plant response rating [3]: 80
Plant response rating, Surinam Grass (Surinam grass; [11]): 90
Surinam Grass plant response rating (Surinam grass; 125 g ai/ha): 0
Surinam Grass plant response rating (Surinam grass; 500 g ai/ha): 0
Plant response rating, Surinam Grass (Surinam grass; [12]): 30
Plant response rating, Velvetleaf (velvetleaf; [11]): 80
Velvetleaf plant response rating (velvetleaf; 125 g ai/ha): 50
Velvetleaf plant response rating (velvetleaf; 500 g ai/ha): 50
Plant response rating, Velvetleaf (velvetleaf; [12]): 50
Plant response rating, Barnyardgrass (barnyardgrass [4]; [11]): 100
Barnyardgrass plant response rating (barnyardgrass [4]; 125 g ai/ha): 0
Barnyardgrass plant response rating (barnyardgrass [4]; 500 g ai/ha): 0
Plant response rating, Barnyardgrass (barnyardgrass [4]; [12]): 70
Plant response rating, Corn (corn; [11]): 60
Corn plant response rating (corn; 125 g ai/ha): 0
Corn plant response rating (corn; 500 g ai/ha): 10
Plant response rating, Corn (corn; [12]): 0
Blackgrass plant response rating (blackgrass; 125 g ai/ha): 20
Blackgrass plant response rating (blackgrass; 500 g ai/ha): 30
Sedge, Umbrella plant response rating [5, 13]: 15
Sedge, Umbrella plant response rating [5, 14]: 45
Sedge, Umbrella plant response rating [5, 15]: 70
Plant response rating, Sedge, Umbrella [5, 16]: 80
Plant response rating, Cocklebur (cocklebur; [11]): 40
Cocklebur plant response rating (cocklebur; 125 g ai/ha): 20
Cocklebur plant response rating (cocklebur; 500 g ai/ha): 70
Plant response rating, Cocklebur (cocklebur; [12]): 40
Rice plant response rating (rice [6]; [13]): 0
Rice plant response rating (rice [6]; [14]): 0
Rice plant response rating (rice [6]; [15]): 35
Plant response rating, Rice (rice [6]; [16]): 60
Barnyardgrass plant response rating (barnyardgrass [7]; [13]): 0
Barnyardgrass plant response rating (barnyardgrass [7]; 125 g ai/ha, scale of 0 to 100, 0 is no effect, 100 is complete control): 0
Barnyardgrass plant response rating (barnyardgrass [7]; [15]): 15
Plant response rating, Barnyardgrass (barnyardgrass [7]; [16]): 35
Plant response rating, Rice (rice [8]; [11]): 90
Plant response rating, Rice (rice [8]; [12]): 80
Plant response rating, Crabgrass, Large (large crabgrass; [11]): 100
Crabgrass, Large plant response rating (large crabgrass; 125 g ai/ha): 30
Crabgrass, Large plant response rating (large crabgrass; 500 g ai/ha): 30
Plant response rating, Crabgrass, Large (large crabgrass; [12]): 80
Plant response rating, Morningglory (morningglory; [11]): 50
Morningglory plant response rating (morningglory; 125 g ai/ha): 0
Morningglory plant response rating (morningglory; 500 g ai/ha): 50
Plant response rating, Morningglory (morningglory; [12]): 50
Ducksalad plant response rating (ducksalad [9]; [13]): 0
Ducksalad plant response rating (ducksalad [9]; [14]): 0
Ducksalad plant response rating (ducksalad [9]; [15]): 20
Plant response rating, Ducksalad (ducksalad [9]; [16]): 50
Rice plant response rating (rice [10]): 60
Plant response rating, Pigweed (pigweed; [11]): 100
Pigweed plant response rating (pigweed; 125 g ai/ha): 50
Pigweed plant response rating (pigweed; 500 g ai/ha): 70
Plant response rating, Pigweed (pigweed; [12]): 100
Oat, Wild plant response rating (wild oat; 125 g ai/ha): 30
Oat, Wild plant response rating (wild oat; 500 g ai/ha): 40
Plant response rating, Lambsquarters (lambsquarters; [11]): 100
Lambsquarters plant response rating (lambsquarters; 125 g ai/ha): 80
Lambsquarters plant response rating (lambsquarters; 500 g ai/ha): 80
Plant response rating, Lambsquarters (lambsquarters; [12]): 70
Plant response rating, Foxtail, Giant (giant foxtail; [11]): 100
Foxtail, Giant plant response rating (giant foxtail; 125 g ai/ha): 0
Foxtail, Giant plant response rating (giant foxtail; 500 g ai/ha): 30
Plant response rating, Foxtail, Giant (giant foxtail; [12]): 50
Wheat plant response rating (wheat): 10
